Data: paper PMC10747822 (Pharmaceutics, 2023)
Where a SMILES comes first, the peptide text is derived from it. [ ]: non-standard residue; d: D form. The star is where a group is joined. NH(4-amidinobenzyl) = N=C(N)c1ccc(CN*)cc1

Columns and labels:
[1] = Bench-top stability in fresh mouse whole blood; assay type: in vitro ADME; details: minimally diluted, 1 µg/mL (1000 ng/mL), room temperature, sampled at 0, 1 and 2 h, duplicates of 20 µL, UPLC-MS/MS peak area ratio analyte/IS, read-out: calculated half-life in whole blood (converted)
Experimental: (§1) To investigate peptide stability, minimally diluted plasma or blood samples were generated through the addition of 10 µL of a spiking solution (50,000 ng/mL) to 490 µL of the pertinent biological matrix, resulting in a sample concentration of 1000 ng/mL. Samples (withdrawal of duplicates of 20 µL) were measured immediately after preparation and again after 1 and 2 h. Stability was evaluated via the comparison of peak area ratios of analyte and IS.
(§2) To determine which biological matrix is best suited for pharmacokinetic experiments in mice, we investigated the bench-top stability of Ac-[D-Leu]LLLRVK-amba in plasma and fresh whole blood at room temperature over a 2 h period (Figure 3). In plasma, anti-coagulated with Li-heparin, Ac-[D-Leu]LLLRVK-amba was very rapidly degraded.

LNCaP xenograft = details: cited from earlier work
Description: A major challenge in the development of peptide therapeutics is their susceptibility to enzymatic hydrolysis in biological systems. A primary mechanism of enzymatic degradation of small peptides in the systemic circulation is peptidase-mediated hydrolysis, especially of terminal amino acids by exopeptidase activity. Ac-[D-Leu]LLLRVK-amba comprises stability-enhancing modifications at both peptide termini: a D-amino acid at the N-terminus and an amba-moiety as a decarboxylated arginine variant at the C-terminus. Both modifications impair substrate properties for exopeptidases and thus inc ... || The pharmacokinetics of Ac-[D-Leu]LLLRVK-amba was already determined after intravenous bolus injection. With a half-life of only 9 min, this route of administration only produced a short period of potentially effective concentrations. […] Therefore, we aimed at flattening the pharmacokinetic profile with alternate routes of administr ...

[2] = Bench-top stability in mouse plasma; assay type: in vitro ADME; details: mouse plasma anti-coagulated with Li-heparin, minimally diluted, room temperature
Experimental: as §1, §2

[3] = Autosampler (extract) stability; assay type: physicochemical; details: 24 h in autosampler
Experimental: Blood samples for calibration and QC purposes were generated through the addition of 25 µL of the pertinent spike solution to 20 µL of blank blood and the subsequent addition of 25 µL of IS solution. Calibration samples were produced at 10, 30, 100, 300, 1000, 3000, and 10,000 ng/mL, and QC samples were produced at concentrations of 10, 30, 3750, and 7500 ng/mL. For study sample processing, 20 µL of each sample was added to 25 µL of IS solution, and 25 µL of ACN/H2O 1/1 + 0.1% FA was added for volume compensation to ensure that sample preparation matches that of study blood samples. For stability reasons, each sample was immediately depleted from proteins by adding 150 µL ACN including 0.1% FA. Samples were processed individually and kept frozen until processing. Subsequently, samples were centrifuged at 13,200× g for 5 min. From the extracts, 10 µL was transferred to 400 µL of ACN/H2O 1/19 + 0.1% FA in wells of a 96-well collection plate (Waters, Milford, MA, USA).
The instrumental setup comprised an Acquity UPLC® Classic System coupled to a Xevo TQ-S triple-stage quadrupole mass spectrometer, which was equipped with a Z-spray heated electrospray ionization (ESI) source (Waters, Milford, MA, USA). […] This yielded an optimal cone voltage of 30 V and collision energy of 10 V. The monitored mass transitions were m/z 343.3 → 436.9 for Ac-[D-Leu]LLLRVK-amba and m/z 345.6 → 440.4 for the IS.
The applicable recommendations for bioanalytical method validation of the FDA and EMA were applied to the validation of the assay. Accuracy was calculated as the percentage of the ratio of the mean of the determined concentrations and the nominal concentration. The acceptance limit is 100 ± 15%, with the exception of the LLOQ where it is 100 ± 20% Q. The assay precision was calculated as the coefficient of variation of the determined sample concentrations. […] Recovery of the whole blood extraction process was calculated from peak areas of QC samples divided by the peak areas obtained from blank blood spiked with the respective amount after processing. […]

PACE4 = details: cited from earlier work
Description: PACE4 is a calcium-dependent serine endoprotease, which has been identified as a potential therapeutic target in prostate cancer. Recently, an efficient inhibitory peptide for PACE4 has been reported, Ac-[D-Leu]LLLRVK-amba, which inhibits PACE4 with low nanomolar affinity. Such high affinity was achieved by optimizing the previously discovered multi-Leu peptide by inserting a […] acetylated D-leucine and replacing the […] arginine with a decarboxylated variant, a 4-amidinobenzylamide (amba) moiety.

CC(=O)N[C@H](CC(C)C)C(=O)N[C@@H](CC(C)C)C(=O)N[C@@H](CC(C)C)C(=O)N[C@@H](CC(C)C)C(=O)N[C@@H](CCCNC(=N)N)C(=O)N[C@H](C(=O)N[C@@H](CCCCN)C(=O)NCc1ccc(C(=N)N)cc1)C(C)C [Ac-[D-Leu]LLLRVK-amba] (Ac-[dL]LLLRVK-{NH(4-amidinobenzyl)})
half-life at 1000 ng/mL [1]: 83.4 min | efficacy in mouse xenograft models of prostate cancer (LNCaP xenograft; daily intravenous and intratumoral injection of 2 mg/kg): demonstrated | efficacy in treating prostate cancer in LNCaP xenograft mice, by route (LNCaP xenograft; intratumoral vs intravenous administration): substantially higher when injected intratumorally than when administered intravenously | half-life at 1000 ng/mL ([2]; CD-1, 1 µg/mL (1000 ng/mL), sampled at 0, 1 and 2 h, duplicates of 20 µL, UPLC-MS/MS peak area ratio analyte/IS, read-out: calculated half-life (t1/2) in plasma (converted)): 28.8 min | calculated half-life (t1/2) in plasma ([2]; 1 µg/mL, 0, 1 and 2 h, duplicates, UPLC-MS/MS, same value given in min): 29 min | autosampler (extract) stability, Accuracy [%] ([3]; QC A): 98.3% | autosampler (extract) stability, Accuracy [%] ([3]; QC B): 99.7% | autosampler (extract) stability, Accuracy [%] ([3]; QC C): 97.5% | affinity of PACE4 inhibition (PACE4): low nanomolar
